Test results from patent publication US7037936B2, “Compounds useful for the treatment of cancer, compositions thereof and methods therewith” (Signal Pharmaceuticals, LLC., priority 2002, dated 2006).
Structures can show the parent of a compound that is named as a salt.

Experiments:
Format in all cases: cell-based
[1] = test system: U266 (multiple myeloma); test: Induction of cell (programmed) death in U266 cells; conditions: U266 (multiple myeloma) cell line
[2] = test system: DU145 (prostate cancer); test: Induction of cell (programmed) death in DU145 cells; conditions: DU145 (prostate cancer) cell line
[3] = test system: MDA-435 human breast cancer cells; test: In vitro apoptosis assay, Annexin V-FITC and PI staining by flow cytometry; conditions: MDA-435 cells
Description: MDA-435 human breast cancer cells were treated with either vehicle or varying doses of the compound of EXAMPLE 1. Cells were harvested and stained with Annexin V-FITC and PI by Flow Cytometry using ApoAlert Annexin V-FITC apoptosis kit (Clonetech, BD). The percentage of apoptotic cells were determined using EPICS® XL™ and XL-MCL, System II™ Software, version 1.0 (1996).

[4] = test system: MDA-MB-231 (breast cancer); test: Induction of cell (programmed) death in MDA-MB-231 cells; conditions: MDA-MB-231 (breast cancer) cell line
[5] = test system: DF15 (multiple myeloma); test: Induction of cell (programmed) death in DF15 cells; conditions: DF15 (multiple myeloma) cell line
[6] = test system: NCIH1703 (non-small cell lung adenocarcinoma); test: Induction of cell (programmed) death in NCIH1703 cells; conditions: NCIH1703 (non-small cell lung adenocarcinoma) cell line
[7] = test system: A172 (malignant glioma); test: Induction of cell (programmed) death in A172 cells; conditions: A172 (malignant glioma) cell line
[8] = test system: MDA-MB-435 (breast cancer); test: Induction of cell (programmed) death in MDA-MB-435 cells; conditions: MDA-MB-435 (breast cancer) cell line
[9] = test system: MM1s (multiple myeloma); test: Induction of cell (programmed) death in MM1s cells; conditions: MM1s (multiple myeloma) cell line
[10] = test system: HL-60 (leukemia); test: Induction of cell (programmed) death in HL-60 cells; conditions: HL-60 (leukemia) cell line
[11] = test system: A357 (lung cancer); test: Induction of cell (programmed) death in A357 cells; conditions: A357 (lung cancer) cell line
[12] = test system: MDA-435 human breast cancer cells; test: In vitro cell cycle assay (G1 arrest), propidium iodide DNA content by flow cytometry; conditions: MDA-435 cells synchronized by serum deprivation for 24 hours, released with 10% serum; vehicle 28%
Description: Tumor cells were synchronized by serum deprivation for 24 hours, then released by adding 10% serum to the cell culture with either the compound of EXAMPLE 1 ((4-{[3-(2,2-Dimethyl-tetrahydro-pyran-4-yl)-4-phenyl-butylamino]-methyl}-phenyl)-dimethyl-amine) (obtained from ChemBridge Corporation; single peak via HPLC: 20–100% gradient: acetonitrile/water/1% trifluoroacetic acid) or vehicle (dimethylsofloxide). Cells were harvested and stained in 0.04% digitonin working solution with […] propidium iodide. DNA content was analyzed by Flow Cytometry (Coulter). The population of cells in each phase was determined using Expo 32-ADC Software for Coulter EPICS® XL™ Cytometers, version 1.1 B (2001).

[13] = test system: MCF-7 (breast cancer); test: Induction of cell (programmed) death in MCF-7 cells; conditions: MCF-7 (breast cancer) cell line
[14] = test system: Hela (cervix adenocarcinoma); test: Induction of cell (programmed) death in Hela cells; conditions: Hela (cervix adenocarcinoma) cell line
[15] = test system: ANB6 (multiple myeloma); test: Induction of cell (programmed) death in ANB6 cells; conditions: ANB6 (multiple myeloma) cell line
[16] = test system: H929 (multiple myeloma); test: Induction of cell (programmed) death in H929 cells; conditions: H929 (multiple myeloma) cell line

SMILES: CN(C)c1ccc(CNCCC(Cc2ccccc2)C2CCOC(C)(C)C2)cc1 (centres unmarked) [EXAMPLE 1, (4-({[3-(2′,2′-dimethyltetrahydropyran-4′-yl)-4-phenylbutylamino]-methyl}-phenyl)-dimethylaminedihydrochloride]
- induction of cell (programmed) death [1]: induce cell (programmed) death
- induction of cell (programmed) death [2]: induce cell (programmed) death
- cell population with increased intensity of Annexin V-FITC staining ([3]; varying doses, dose-dependent increase): up to 30%
- PI staining of treated cells ([3]; PI stains cells in a late stage of apoptosis): increase in PI staining
- induction of cell (programmed) death [4]: induce cell (programmed) death
- induction of cell (programmed) death [5]: induce cell (programmed) death
- induction of cell (programmed) death [6]: induce cell (programmed) death
- induction of cell (programmed) death [7]: induce cell (programmed) death
- induction of cell (programmed) death [8]: induce cell (programmed) death
- induction of cell (programmed) death [9]: induce cell (programmed) death
- induction of cell (programmed) death [10]: induce cell (programmed) death
- induction of cell (programmed) death [11]: induce cell (programmed) death
- G0/G1 to S phase transition blockage [12]: 38%
- induction of cell (programmed) death [13]: induce cell (programmed) death
- induction of cell (programmed) death [14]: induce cell (programmed) death
- induction of cell (programmed) death [15]: induce cell (programmed) death
- induction of cell (programmed) death [16]: induce cell (programmed) death
